Laboratory results from US9656984B2, “PI3K/AKT/mTOR inhibitors and pharmaceutical uses thereof” (UNIVERSITE DE RENNES 1, priority 2013, dated 2017).

What was measured:
[1] = tested on: PI3K/AKT activity (AKT phosphorylation); assay: PI3K/AKT/mTOR pathway inhibitory activity: level of AKT phosphorylation in CEM cells over time; assay type: cell-based, human; conditions: 10 μM, FIGS. 7 and 8
Experimental: The CEM cell was incubated with 10 μM of each mentioned compound of formula (I) for the indicated times and then cells were lysed and 100 μg of protein was loaded per line and resolved by SDS-PAGE. The levels of AKT phosphorylation (hallmark of PI3K activation) and total AKT (loading control) were analyzed by Western blot and the amount of AKT phosphorylation relative to the total amount of protein AKT was quantified by densitometric analysis, the intensity of each band was scanned and the level of AKT phosphorylation was reported to the amount of whole AKT and the percentage of phosphorylated-AKT was depicted.
(§1) Immunoblots Excepted for immunoprecipitation experiments in which cells were lyzed with RIPA buffer, cells were lyzed for 30 min at 4° C. in Lysis buffer (25 mM HEPES pH 7.4, 1% v/v Triton X-100, 150 mM NaCl, 2 mM EGTA supplemented with a mix of protease inhibitors). Protein concentration was determined by the bicinchoninic acid method (Pierce, Rockford, Ill., USA) according to the manufacturer's protocol. Proteins were resolved by 8, 10 or 12% SDS-PAGE and transferred to a nitrocellulose membrane (GE Healthcare, Buckinghamshire, UK). The membrane was blocked 15 min with TBST (50 mM Tris, 160 mM NaCl, 0.05% v/v Tween 20, pH 7.4) containing 5% w/v dried skimmed milk (TBS™). Primary antibody was incubated overnight at 4° C. in TBS™. The membrane was intensively washed (TBST) and then the peroxydase-labeled anti-mouse IgG1 or IgG2a (CliniSciences, Nanterre, France) was added for 45 min. Proteins were visualized with the enhanced chemiluminescence substrate kit (ECL RevelBIOt®, Ozyme, Saint Quentin en Yvelines, France).

[2] = tested on: MDA-MB-453 (HER2 positive) breast tumor cell line; assay: Cell death by MTT assay, MDA-MB-453; assay type: cell-based, human; conditions: 24 hours, mean of two experiments
Experimental: (§2) The ER-positive breast tumor cell lines MCF-7 and T47-D and the HER2 positive breast tumor cell lines MDA-MB-453 and BT474 (also ER-positive) were incubated with the indicated concentration of each mentioned compound of formula (I) for 24 hours and then cell death was assessed using MTT assay.
(§3) For each cell line, the percentage of cell death (mean of four experiments for cell lines MCF-7 and T47-D, and two experiments for cell lines MDA-MB-453 and BT474) is given in view of the increasing concentration of each tested compound of the invention.
(§4) Cell viability was assessed using the 3-[4,5-dimethylthiazol-2-yl]-2,5-diphenyltetrazolium bromide (MTT) viability assay (1). In brief, cells (4×10^4 per well) were cultured for 20 h in flat-bottomed 96 well plates with various concentrations of the apoptosis inducer. Then 0.015 ml of MTT (5 mg/ml in PBS) was added to each well and incubated for 4 h at 37° C. Formazan salt precipitats were dissolved by adding 0.115 ml of isopropyl alcohol containing 1% formic acid (v/v), and the absorbance was measured at 570 nm.

[3] = tested on: AKT phosphorylation; assay: In cellulo IC50 of AKT phosphorylation in CEM cells (Western blot densitometry); assay type: cell-based; conditions: Homo sapiens, CCRF-CEM, 2 hours incubation, AKT phosphorylation vs whole AKT, read-out: In vivo IC50
Experimental: CEM cells were incubated for 2 hours with the indicated concentrations of each mentioned compound of formula (I). Cells were then lysed and 100 μg of protein was loaded per line in an SDS-PAGE. Bands from AKT phosphorylation and whole AKT observed by Western blot were scanned and quantified by densitometric analysis. Based on these values, an in cellulo IC50 (half maximal inhibitory concentration) was measured for each compound of formula (I).
as §1

[4] = tested on: MCF-7 (ER-positive) breast tumor cell line; assay: Cell death by MTT assay, MCF-7; assay type: cell-based, human; conditions: 24 hours, mean of four experiments
Experimental: as §2, §3, §4

[5] = tested on: T47-D (ER-positive) breast tumor cell line; assay: Cell death by MTT assay, T47-D; assay type: cell-based, human; conditions: 24 hours, mean of four experiments
Experimental: as §2, §3, §4

[6] = tested on: BT474 (ER-positive/HER2-positive) breast tumor cell line; assay: Cell death by MTT assay, BT474; assay type: cell-based, human; conditions: 24 hours, mean of two experiments
Experimental: as §2, §3, §4

SMILES | IC50 [3] | melting point | inhibitory activity on PI3K/AKT (level of AKT phosphorylation) [1] | percentage of cell death ([2]; MDA-MB-453, 0.390625 μM) | percentage of cell death ([2]; MDA-MB-453, 0.78125 μM) | percentage of cell death ([2]; MDA-MB-453, 1.5625 μM) | percentage of cell death ([2]; MDA-MB-453, 3.125 μM) | percentage of cell death ([2]; MDA-MB-453, 6.25 μM) | percentage of cell death ([2]; MDA-MB-453, 12.5 μM) | percentage of cell death ([2]; MDA-MB-453, 25 μM) | percentage of cell death ([2]; MDA-MB-453, 50 μM) | further results
O=[N+]([O-])C1=Cc2cccc(Br)c2OC1c1ccc(Cl)cc1 (stereo not shown) [Compound 19, 8-bromo-2-(4-chloro-phenyl)-3-nitro-2H-chromene] | > 10000 nM |  | very strong inhibitors | 0% | 0% | 0% | 24.69% | 53.93% | 91.89% | 98.05% | 101.13% | percentage of cell death ([4]; MCF-7, 6.25 μM): 0%; percentage of cell death ([4]; MCF-7, 12.5 μM): 25.75%; percentage of cell death ([4]; MCF-7, 25 μM): 52.14%; percentage of cell death ([4]; MCF-7, 50 μM): 84.65%
O=[N+]([O-])C1=Cc2cc(Br)ccc2OC1c1ccc(Br)cc1 (stereo not shown) [Compound 9, 6-bromo-2-(4-bromo-phenyl)-3-nitro-2H-chromene] | 400 nM |  | very strong inhibitors | 1.52% | 7.56% | 4.67% | 53.8% | 71.22% | 87.47% | 97.49% | 98.67% | percentage of cell death ([5]; 6.25 μM): 20.53%; percentage of cell death ([5]; 12.5 μM): 92.97%; percentage of cell death ([5]; 25 μM): 91.2%; percentage of cell death ([5]; 50 μM): 93.62%; percentage of cell death ([6]; BT474, 6.25 μM): 25.95%; percentage of cell death ([6]; BT474, 12.5 μM): 71.4%; percentage of cell death ([6]; BT474, 25 μM): 88.01%; percentage of cell death ([6]; BT474, 50 μM): 93.62%; percentage of cell death ([4]; MCF-7, 6.25 μM): 0%; percentage of cell death ([4]; MCF-7, 12.5 μM): 32.14%; percentage of cell death ([4]; MCF-7, 25 μM): 52.18%; percentage of cell death ([4]; MCF-7, 50 μM): 80.16%
O=CC1=Cc2cc(Br)ccc2OC1c1ccc(Br)cc1 (stereo not shown) [Compound 44, 6-Bromo-2-(4-bromophenyl)-2H-chromene-3-carbaldehyde] |  | 144 to 146 °C |  |  |  |  |  |  |  |  |  | 
O=[N+]([O-])C1=Cc2cc(Br)ccc2OC1c1ccc(Cl)cc1 (stereo not shown) [Compound 10, 6-bromo-2-(4-chloro-phenyl)-3-nitro-2H-chromene] | 2000 nM |  | very strong inhibitors | 6.6% | 7.8% | 5.06% | 70.42% | 76.17% | 93.07% | 98.46% | 99.07% | percentage of cell death ([5]; 6.25 μM): 4.62%; percentage of cell death ([5]; 12.5 μM): 87.84%; percentage of cell death ([5]; 25 μM): 91.71%; percentage of cell death ([5]; 50 μM): 92.93%; percentage of cell death ([6]; BT474, 6.25 μM): 0%; percentage of cell death ([6]; BT474, 12.5 μM): 40.42%; percentage of cell death ([6]; BT474, 25 μM): 69.52%; percentage of cell death ([6]; BT474, 50 μM): 93.84%; percentage of cell death ([4]; MCF-7, 6.25 μM): 0%; percentage of cell death ([4]; MCF-7, 12.5 μM): 24.06%; percentage of cell death ([4]; MCF-7, 25 μM): 49.08%; percentage of cell death ([4]; MCF-7, 50 μM): 81.85%
CCOc1cccc2c1OC(c1ccc(Br)cc1)C([N+](=O)[O-])=C2 (stereo not shown) [Compound 13, 2-(4-bromo-phenyl)-8-ethoxy-3-nitro-2H-chromene] | 8000 nM |  | very strong inhibitors |  |  |  |  |  |  |  |  | 
O=[N+]([O-])C1=Cc2cccc(Br)c2OC1c1ccc(Br)cc1 (stereo not shown) [Compound 18, 8-bromo-2-(4-bromo-phenyl)-3-nitro-2H-chromene] | 1500 nM |  | very strong inhibitors | 3.17% | 3.17% | 0% | 0% | 45.963% | 81.73% | 93.72% | 100% | percentage of cell death ([5]; 6.25 μM): 0%; percentage of cell death ([5]; 12.5 μM): 0%; percentage of cell death ([5]; 25 μM): 23.71%; percentage of cell death ([5]; 50 μM): 78.28%
CCOc1cccc2c1OC(c1ccc(Cl)cc1)C([N+](=O)[O-])=C2 (stereo not shown) [Compound 14, 2-(4-chloro-phenyl)-8-ethoxy-3-nitro-2H-chromene] | 10000 nM |  | very strong inhibitors |  |  |  |  |  |  |  |  | 
O=[N+]([O-])C1Cc2cc(Br)ccc2OC1c1ccc(F)cc1 (stereo not shown) [Compound 7, 6-bromo-2-(4-fluorophenyl)-3-nitro-3,4-dihydro-2H-chromene] |  |  |  | 1.13% | 0% | 13.84% | 52.93% | 65.61% | 97.05% | 102.46% | 100.25% | percentage of cell death ([5]; 6.25 μM): 34.43%; percentage of cell death ([5]; 12.5 μM): 85.1%; percentage of cell death ([5]; 25 μM): 92.07%; percentage of cell death ([5]; 50 μM): 88.3%; percentage of cell death ([6]; BT474, 6.25 μM): 44.85%; percentage of cell death ([6]; BT474, 12.5 μM): 55.3%; percentage of cell death ([6]; BT474, 25 μM): 91.87%; percentage of cell death ([6]; BT474, 50 μM): 96.07%; percentage of cell death ([4]; MCF-7, 6.25 μM): 10.88%; percentage of cell death ([4]; MCF-7, 12.5 μM): 38.7%; percentage of cell death ([4]; MCF-7, 25 μM): 79.7%; percentage of cell death ([4]; MCF-7, 50 μM): 95.55%

Second part, led by results:

IC50 [3] | melting point | SMILES | inhibitory activity on PI3K/AKT (level of AKT phosphorylation) [1] | percentage of cell death ([2]; MDA-MB-453, 0.390625 μM) | percentage of cell death ([2]; MDA-MB-453, 0.78125 μM) | percentage of cell death ([2]; MDA-MB-453, 1.5625 μM) | percentage of cell death ([2]; MDA-MB-453, 3.125 μM) | percentage of cell death ([2]; MDA-MB-453, 6.25 μM) | percentage of cell death ([2]; MDA-MB-453, 12.5 μM) | percentage of cell death ([2]; MDA-MB-453, 25 μM) | percentage of cell death ([2]; MDA-MB-453, 50 μM) | further results
 | 208 to 210 °C | O=C(O)C1=Cc2cc(Br)ccc2OC1c1ccc(Br)cc1 (stereo not shown) [Compound 53, 6-bromo-2-(4-bromophenyl)-2H-chromene-3-carboxylic acid] |  |  |  |  |  |  |  |  |  | 
 | 118 to 120 °C | COC(=O)C1=Cc2cc(Br)ccc2OC1c1ccc(Br)cc1 (stereo not shown) [Compound 55, Methyl-6-Bromo-2-(4-bromophenyl)-2H-chromene-3-carboxylate] |  |  |  |  |  |  |  |  |  | 
 | 136 to 138 °C | N#CC1=Cc2cc(Br)ccc2OC1c1ccc(Br)cc1 (stereo not shown) [Compound 61, 6-Bromo-2-(4-bromophenyl)-2H-chromene-3-carbonitrile] |  |  |  |  |  |  |  |  |  | 
 | 158 to 160 °C | ON=CC1=Cc2cc(Br)ccc2OC1c1ccc(Br)cc1 (stereo not shown) [Compound 59, 6-Bromo-2-(4-bromophenyl)-2H-chromene-3-carbaldehyde oxime] |  |  |  |  |  |  |  |  |  | 
 | 256 to 258 °C | O=C(O)C1=Cc2cc(Br)cc(Br)c2OC1c1ccc(Br)cc1 (stereo not shown) [Compound 54, 6,8-dibromo-2(4-bromophenyl)-2H-chromene-3-carboxylic acid] |  |  |  |  |  |  |  |  |  | 
 | 196 to 198 °C | N#CC1=Cc2cc(Br)cc(Br)c2OC1c1ccc(Br)cc1 (stereo not shown) [Compound 62, 6,8-Dibromo-2-(4-bromophenyl)-2H-chromene-3-carbonitrile] |  |  |  |  |  |  |  |  |  | 
